Experimental data taken from patent US8093383B2, “P70 S6 kinase inhibitors” (Eli Lilly and Company, priority 2007, dated 2012).
Where a name gives a salt, the structure may show the parent alone. Read-outs that look alike come from different tables or passages of the source. Marks after values point to notes of the source that are not given here. One block for each compound: values may come before it.

Tests used:
p70 S6K = molecular target: T1, p70 S6K (Homo sapiens, UniProt P23443); experiment: Determination of p70 S6K In Vivo Target Inhibition (HCT 116); set-up: species or system athymic nude mice; conditions: HCT 116 xenograft, PO; potency based on plasma exposure; phosphorylation of S6RP serine 240/244
T1 construct: endogenous in cells; host or cells: HCT 116 human colon carcinoma xenograft tumours in athymic nude mice
T1 sequence (P23443 whole entry): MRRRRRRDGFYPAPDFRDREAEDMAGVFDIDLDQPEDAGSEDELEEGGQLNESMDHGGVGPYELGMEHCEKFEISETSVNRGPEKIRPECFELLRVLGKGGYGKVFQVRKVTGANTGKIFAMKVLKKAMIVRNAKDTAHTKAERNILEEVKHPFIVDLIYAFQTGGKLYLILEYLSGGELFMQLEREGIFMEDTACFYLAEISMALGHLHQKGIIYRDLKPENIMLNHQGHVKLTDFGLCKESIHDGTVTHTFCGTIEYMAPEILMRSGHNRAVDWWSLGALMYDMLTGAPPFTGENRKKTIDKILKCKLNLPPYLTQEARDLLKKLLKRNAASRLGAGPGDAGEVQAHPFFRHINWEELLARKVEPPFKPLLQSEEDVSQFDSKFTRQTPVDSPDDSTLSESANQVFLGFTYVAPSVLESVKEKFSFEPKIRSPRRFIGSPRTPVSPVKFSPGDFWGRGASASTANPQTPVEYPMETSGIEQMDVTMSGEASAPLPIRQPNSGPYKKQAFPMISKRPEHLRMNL
Method: HCT 116 human colon carcinoma cells* (5×10^6) are subcutaneously implanted into the flank of athymic nude mice in 0.2 mL of matrigel. Two weeks post-implantation, mice are dosed PO according to a time course, single dose/single time point, or dose response protocol for the determination of TMED50 (threshold minimum effective dose). Tumors are flash frozen at harvest and blood is collected for the determination of parent compound plasma exposure and the calculation of TMEC50 (threshold minimum effective concentration) in the case of dose response studies. Tumors or tissues are homogenized in XY Lysis buffer (10 μg/mL Leupeptin, 10 μg/mL Trypsin-Chymotrypsin Inhibitor, 10 μg/mL Tosyl phenylalanyl chloromethyl ketone (TPCK), 10 μg/mL Aprotinin, 60 mM Beta-Glycerol Phosphate, 1% Triton X100, 25 mM Tris pH 7.5, 2.5 mM Pyrophosphate, 150 mM NaCl, 2 mM p-tosyl-L-arginine methyl ester (TAME), 15 mM para-nitrophenyl phosphate (pNPP), 5 mM Benzamidine, 1 mM Na Vanadate, 10 mM NaF, 50 μg/mL phenylmethane sulofnyl fluoride (PMSF), 1 mM DTT, 15 mM EDTA pH 8.0, 5 mM EGTA pH 8.0, 1 μM Microcystin, 1 μM Okadaic Acid, and 1 Roche Complete protease inhibitor mini-tablet per 10 mL) using Lysing Matrix A tubes (MP Biomedicals, Solon, Ohio, cat# 6910-500) and a BIO101 Thermo Savant Fast Prep FP12. Lysates are aliquoted and either assayed immediately or stored at −80° C. for later testing. In Vivo Target Inhibition of p70 S6K is measured utilizing Meso Scale Discovery (Gaithersburg, Md.) ELISA technology to assess effects of the compound on phosphorylation of the serine 240/244 site of the downstream effector S6RP. Phosphorylation of p70 S6K(T389) and Akt(S473) is also assessed using this technology in a multiplex format. In summary, 20 μg of lysate is added to a carbon electrode 96-well plate pre-spotted with the appropriate capture antibodies. The protein of interest is probed using a ruthenium labeled detection antibody. Upon the passage of current over the electrode in the presence of read buffer containing the co-reactant TPA, electro-chemiluminescence results in the generation of light which is quantified and recorded using the MSD Sector 6000 instrument. For each study, percent inhibitions are calculated relative to the vehicle control group and ANOVA analysis is performed using the JMP software package for the determination of statistical significance. The following compounds were tested essentially as described above and have the following potencies based on plasma exposure.

[1] = system: HUVEC / neo NHDF co-culture cord formation; experiment: Angiogenesis Cord Formation Assay; type: cell-based; conditions: Homo sapiens, 288 h
Method: Human neonatal dermal fibroblast cells (neo NHDF) are seeded into Parkard 96 well plate on the first day, and incubated in the 37° C. and 5% CO2 incubator. Human umbilical vein endothelial cells (HUVEC) are then plated on the top of neo NHDF cells. Starting the third day, the co-culture is treated with eight-dose series of the test compound (starting with 20 μM, 1:3 serial dilution) in the presence of 20 ng/mL vascular endothelial growth factor (VEGF). The compound and VEGF are replenished every two to three days. The assay is conducted over a 12 day period. Cells are fixed by cold 70% ethanol for 30 minutes on the 12th day and processed for anti human CD31 immunofluorescence. Cultures are incubated with mouse anti human CD31 antibody and then stained by goat anti mouse alexa 488 secondary antibody. Cells are also stained by Hoechst to visualize the nucleus. After the staining, the cord formation is captured and quantified using Cellomics Arrayscan® VTI high content image analysis platform adopting the tube formation BioApplication. Two parameters, the cord area and angiogenesis index, are used to calculate the relative potency of the test compound in this angiogenesis assay. The compounds of Examples 5 and 10 were tested and analyzed essentially as described above.

U87MG = experiment: Cell assay (Alamar Blue, 72 hours) U87MG; type: cell-based; conditions: Homo sapiens, U-87 MG
Method: (§1) Cells are maintained, then typsinized and suspended in Dulbecco's modified Eagle's medium (DMEM_containing 10% fetal bovine serum (FBS), 25 mM 4-(2-hydroxyethyl)-1-piperazineethanesulfonic acid (HEPES), 1.0 mM Sodium Pyruvate and 0.1 mM Non Essential Amino Acids (NEAA). 1×10^3 HCT116 and 2×10^3 Cells may be seeded in 50 μL in 96 well plates and incubated in 5% CO2 at 37° C. overnight. Compounds are prepared at desired starting concentrations and serial diluted in DMSO. 4 μL of diluted compounds are transferred in 1 mL 10% FBS DMEM to make up 2× concentrations as added 50 μL to the 50 μL in the presence of cells for dosing. The plates are incubated at 37° C. in 5% CO2 for 72 hours. At the end of incubation period, 10 μL Alamar Blue is added and after 2 hours reaction the measurement is determined in CytoFluor at 530 nm excitation, 580 nm emission and Gain 45. The following compounds were tested in the following cell lines essentially as described above.

[2] = system: HCT 116 human colon carcinoma cells; experiment: Determination of p70 S6K In Vivo Efficacy (HCT 116 xenograft tumor growth); set-up: species or system athymic nude mice
Method: HCT 116 human colon carcinoma cells (5×10^6) are subcutaneously implanted into the flank of athymic nude mice in 0.2 mL of matrigel. One week post-implantation, mice are dosed PO according to the pharmacokinetics and the pharmacodynamics of the molecule to maintain 30-50% or 60-90% pS6 Inhibition over a 24 hr period. Dosing is continued for at least 21 days. Tumor volumes are measured bi-weekly to evaluate drug related tumor growth reduction utilizing standard methods. At the end of the study, tumors are flash-frozen at harvest and blood is collected for the determination of parent compound plasma exposure. The compound of Example 5 was tested essentially as described above.

A549 = experiment: Cell assay (Alamar Blue, 72 hours) A549; type: cell-based; conditions: Homo sapiens
Method: as §1

P70 S6 kinase (T412E) = molecular target: T2, P70 S6 kinase (T412E) (Homo sapiens, UniProt P23443, T412E); experiment: Inhibition of p70S6 Kinase; type: biochemical; conditions: 25 μM ATP, 5 nM enzyme, relative IC50
T2 construct: purchased Upstate USA, Inc. (Charlottesville, Va.)
T2 sequence (P23443 whole entry T412E): as the sequence (P23443 whole entry) above, with T412E counted along it
Method: P70 S6 kinase (T412E) from Upstate USA, Inc. (Charlottesville, Va.) is preincubated with 10 concentrations of compound in a 15 μL volume for 30 min at room temperature in 96-well plates. PKA, PKC, MAPKAP-K1 Substrate from AnaSpec (San Jose, Calif.) and gamma ^33P-ATP from PerkinElmer (Waltham, Mass.) is added to initiate the reaction which is allowed to proceed for 60 minutes at room temperature in a final 25 μL volume under the following conditions: 10 mM HEPES pH 7.5, 10 mM MgCl2, 1.0 mM DTT, 0.082 mM EGTA, 0.005% TRITON X-100™, 25 μM, 25 μM ATP, 40 μCi/mL, 4 μM substrate, and 5 nM enzyme. Reactions are terminated with 75 μL 10% H3PO4 and 85 μL of quenched reaction mix is transferred to a phosphocellulose filter plate (Millipore #MAPHN0B50) and washed with 0.5% H3PO4 using a vacuum manifold. 100 μL of Microscint 20 (Packard #60113621) is added to each well and plates with liner are counted using a Wallac Beta Counter. Relative IC50 values are calculated by non-linear four parameter fitting.

K562 = experiment: Cell assay (Alamar Blue, 72 hours) K562; type: cell-based; conditions: Homo sapiens
Method: as §1

Oral bioavailability = type: in vivo; conditions: rat, plasma; Sprague Dawley rats, 1 mg/kg (IV) or 10 mg/kg (oral gavage)
Method: The bioavailability of compounds of the present invention may be measured by methods known to the skilled artisan. For example a compound of Formula I is administered to Sprague Dawley rats at doses of 1 mg/kg (IV) or 10 mg/kg (oral gavage) in a conventional formulation. An oral formulation may include a suspension (0.25% PS80, 1% HEC, 0.05% Antifoam in water) using milled compound of Formula I. Plasma samples are obtained and concentrations of the compound of Formula I are measured. The compound of Example 57 was evaluated in a method substantially similar to that described above and found to have an oral bioavailability of >100%.

A2780 = experiment: Cell assay (Alamar Blue, 72 hours) A2780; type: cell-based; conditions: Homo sapiens
Method: as §1

PANC-1 = experiment: Cell assay (Alamar Blue, 72 hours) PANC-1; type: cell-based; conditions: Homo sapiens
Method: as §1

NCI-H460 = experiment: Cell assay (Alamar Blue, 72 hours) NCI-H460; type: cell-based; conditions: Homo sapiens
Method: as §1

PC3 = experiment: Cell assay (Alamar Blue, 72 hours) PC3; type: cell-based; conditions: Homo sapiens, PC-3
Method: as §1

Rat 13762 = experiment: Cell assay (Alamar Blue, 72 hours) Rat 13762; type: cell-based
Method: as §1

Compound: Fc1ccc(-c2cnc(C3CCN(c4ncnc5[nH]cnc45)CC3)[nH]2)cc1C(F)(F)F [Example 8, 6-{4-[5-(4-Fluoro-3-trifluoromethyl-phenyl)-1H-imidazol-2-yl]-piperidin-1-yl}-9H-purine hydrochloride]
IC50 (p70 S6K): 47.7 µM
IC50 (P70 S6 kinase (T412E)): 0.00758 µM

Compound: Cn1cc(-c2ccc(F)c(C(F)(F)F)c2)nc1C1CCN(c2ncnc3[nH]ncc23)CC1 [Example 10, 4-{4-[4-(4-Fluoro-3-trifluoromethyl-phenyl)-1-methyl-1H-imidazol-2-yl]-piperidin-1-yl}-1H-pyrazolo[3,4-d]pyrimidine hydrochloride]
IC50 (p70 S6K): 1.97 µM
IC50 [1]: 4.78 µM
IC50 (P70 S6 kinase (T412E)): 0.00379 µM

Compound: Cc1ccc(S(=O)(=O)O)cc1.Cn1cc(-c2ccc(F)c(C(F)(F)F)c2)nc1C1CCN(c2ncnc3[nH]ncc23)CC1 [Example 57, 4-{4-[4-(4-Fluoro-3-trifluoromethyl-phenyl)-1-methyl-1H-imidazol-2-yl]-piperidin-1-yl}-1H-pyrazolo[3,4-d]pyrimidine p-toluenesulfonate]
IC50 (K562): 16.5 µM
bioavailability (Oral bioavailability): > 100%
IC50 (A2780): 25.1 µM
IC50 (U87MG): 27.5 µM
IC50 (PANC-1): 30.2 µM
IC50 (NCI-H460): 24 µM
IC50 (PC3): 31.9 µM
IC50 (A549): 10.3 µM
IC50 (Rat 13762): 51.6 µM
IC50 (P70 S6 kinase (T412E)): 0.0127 µM

Second part, led by results:

IC50 (p70 S6K): 7.3 µM
IC50 (U87MG): 14.6 µM
melting point: 306 °C
IC50 (A549): 22 µM
IC50 (P70 S6 kinase (T412E)): 0.0294 µM
Compound: Cl.FC(F)(F)c1cccc(-c2c[nH]c(C3CCN(c4ncnc5[nH]ncc45)CC3)n2)c1 [Example 5, 4-{4-[4-(3-(Trifluoromethyl)-phenyl)-1H-imidazol-2-yl]-piperidin-1-yl}-1H-pyrazolo[3,4-d]pyrimidine hydrochloride]
IC50 ([1]; 20 ng/mL VEGF, 12 day, cord area and angiogenesis index, read-out: IC50): 2.92 µM
Tumor Volume ([2]; 30 mg/kg PO (BID × 21), Day 8, mean of 10 animals): 36.5 mm^3
Tumor Volume ([2]; 30 mg/kg PO (BID × 21), Day 13, mean of 10 animals): 58.7 mm^3
Tumor Volume ([2]; 30 mg/kg PO (BID × 21), Day 16, mean of 10 animals): 90.9 mm^3
Tumor Volume ([2]; 30 mg/kg PO (BID × 21), Day 20, mean of 10 animals): 134.6 mm^3
Tumor Volume ([2]; 30 mg/kg PO (BID × 21), Day 23, mean of 10 animals): 192.7 mm^3
Tumor Volume ([2]; 30 mg/kg PO (BID × 21), Day 27, mean of 10 animals): 296.3 mm^3
Tumor Volume ([2]; 60 mg/kg PO (BID × 21), Day 8, mean of 10 animals ± standard deviation): 28.8 ± 2.6^b mm^3
Tumor Volume ([2]; 60 mg/kg PO (BID × 21), Day 13, mean of 10 animals ± standard deviation): 42.1 ± 6.2*** mm^3
Tumor Volume ([2]; 60 mg/kg PO (BID × 21), Day 16, mean of 10 animals ± standard deviation): 72.1 ± 11.8*** mm^3
Tumor Volume ([2]; 60 mg/kg PO (BID × 21), Day 20, mean of 10 animals ± standard deviation): 139.0 ± 26.4*** mm^3
Tumor Volume ([2]; 60 mg/kg PO (BID × 21), Day 23, mean of 10 animals ± standard deviation): 188.4 ± 25.9*** mm^3
Tumor Volume ([2]; 60 mg/kg PO (BID × 21), Day 27, mean of 10 animals ± standard deviation): 280.0 ± 36.1*** mm^3
Tumor Volume ([2]; 60 mg/kg PO (QD × 21), Day 8, mean of 10 animals ± standard deviation): 30.6 ± 3.4^b mm^3
Tumor Volume ([2]; 60 mg/kg PO (QD × 21), Day 13, mean of 10 animals ± standard deviation): 57.8 ± 10.7** mm^3
Tumor Volume ([2]; 60 mg/kg PO (QD × 21), Day 16, mean of 10 animals ± standard deviation): 85.0 ± 13.3*** mm^3
Tumor Volume ([2]; 60 mg/kg PO (QD × 21), Day 20, mean of 10 animals ± standard deviation): 142.5 ± 18.4*** mm^3
Tumor Volume ([2]; 60 mg/kg PO (QD × 21), Day 23, mean of 10 animals ± standard deviation): 194.5 ± 25.7*** mm^3
Tumor Volume ([2]; 60 mg/kg PO (QD × 21), Day 27, mean of 10 animals ± standard deviation): 252.7 ± 34.4*** mm^3

IC50 (p70 S6K): 1.92 µM
IC50 (P70 S6 kinase (T412E)): 0.0103 µM
Compound: Fc1ccc(-c2c[nH]c(C3CCN(c4ncnc5[nH]ccc45)CC3)n2)cc1C(F)(F)F [Example 7, 4-{4-[4-(4-Fluoro-3-trifluoromethyl-phenyl)-1H-imidazol-2-yl]-piperidin-1-yl}-7H-pyrrolo[2,3-d]pyrimidine hydrochloride]
